From PubChem BioAssay (NCI) come the findings set out here.

The structures appear in SMILES notation.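 Growth conditions: 96-well plates. Treatment: test compound, 48 hours, 5 concentrations. Analysis: linear interpolation between bracketing concentrations; unreached endpoints set to highest concentration. TGI: total growth inhibition.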

The subject of the first experiment is NCI-H226 lung. Nature of the experiment: NCI tumour cell line growth inhibition, 48 h.
With `O=C(O[C@H](/C=C/c1ccccc1)P1(=O)N(Cc2ccccc2)[C@@H]2CCCC[C@H]2N1Cc1ccccc1)c1ccccc1`, the TGI stood at 7.98 µM.

A further experiment deals with NCI-H23 lung. As to the kind of experiment: NCI tumour cell line growth inhibition, 48 h.
`CC(C)CCNC(=O)c1ccc(CNC(=O)/C=C/c2ccc(OCc3ccccc3)cc2)cc1`: the TGI is > 100 µM.

`N#Cc1c2c(c(Nc3ccc(F)cc3)n3c1nc1ccccc13)CCC2` had a TGI of 17.6 µM.

Take `O=C(O[C@H](/C=C/c1ccccc1)P1(=O)N(Cc2ccccc2)[C@@H]2CCCC[C@H]2N1Cc1ccccc1)c1ccccc1`: the TGI stood at 7.43 µM.

Take `CCOC(=O)C(=O)N1C(C)=C(C(=O)OCC)CC(C(=O)OCC)=C1C`: the TGI was > 100 µM.

A further experiment relates to NCI-H460 lung. Nature of the experiment: NCI tumour cell line growth inhibition, 48 h.
As for `CC(C)CCNC(=O)c1ccc(CNC(=O)/C=C/c2ccc(OCc3ccccc3)cc2)cc1`, the TGI was > 100 µM.

`N#Cc1c2c(c(Nc3ccc(F)cc3)n3c1nc1ccccc13)CCC2` yielded a TGI of 23 µM.

Take `O=C(O[C@H](/C=C/c1ccccc1)P1(=O)N(Cc2ccccc2)[C@@H]2CCCC[C@H]2N1Cc1ccccc1)c1ccccc1`: the TGI was > 100 µM.

Turning to `CCOC(=O)C(=O)N1C(C)=C(C(=O)OCC)CC(C(=O)OCC)=C1C`, the TGI was > 100 µM.

The subject of a further experiment is NCI-H522 lung. As to the kind of experiment: NCI tumour cell line growth inhibition, 48 h.
Turning to `N#Cc1c2c(c(Nc3ccc(F)cc3)n3c1nc1ccccc13)CCC2`, the TGI was found to be 4.58 µM.

Consider `O=C(O[C@H](/C=C/c1ccccc1)P1(=O)N(Cc2ccccc2)[C@@H]2CCCC[C@H]2N1Cc1ccccc1)c1ccccc1`, for which the TGI is > 100 µM.

As to `CCOC(=O)C(=O)N1C(C)=C(C(=O)OCC)CC(C(=O)OCC)=C1C`, the TGI is > 100 µM.

A further experiment relates to NCI/ADR-RES ovarian. As to the kind of experiment: NCI tumour cell line growth inhibition, 48 h.
As for `CC(C)CCNC(=O)c1ccc(CNC(=O)/C=C/c2ccc(OCc3ccccc3)cc2)cc1`, the TGI was > 100 µM.

Molecule `N#Cc1c2c(c(Nc3ccc(F)cc3)n3c1nc1ccccc13)CCC2` returned a TGI of 25 µM.

`O=C(O[C@H](/C=C/c1ccccc1)P1(=O)N(Cc2ccccc2)[C@@H]2CCCC[C@H]2N1Cc1ccccc1)c1ccccc1` showed a TGI of 43.1 µM.

A further experiment deals with OVCAR-3 ovarian. As to the kind of experiment: NCI tumour cell line growth inhibition, 48 h.
As to `CC(C)CCNC(=O)c1ccc(CNC(=O)/C=C/c2ccc(OCc3ccccc3)cc2)cc1`, the TGI was > 100 µM.

`N#Cc1c2c(c(Nc3ccc(F)cc3)n3c1nc1ccccc13)CCC2` registered a TGI of 18.5 µM.

`O=C(O[C@H](/C=C/c1ccccc1)P1(=O)N(Cc2ccccc2)[C@@H]2CCCC[C@H]2N1Cc1ccccc1)c1ccccc1` returned a TGI of 94.3 µM.

Turning to `CCOC(=O)C(=O)N1C(C)=C(C(=O)OCC)CC(C(=O)OCC)=C1C`, the TGI was > 100 µM.

The next experiment concerns OVCAR-4 ovarian. Nature of the experiment: NCI tumour cell line growth inhibition, 48 h.
On to `CC(C)CCNC(=O)c1ccc(CNC(=O)/C=C/c2ccc(OCc3ccccc3)cc2)cc1`, for which the TGI was > 100 µM.

As for `N#Cc1c2c(c(Nc3ccc(F)cc3)n3c1nc1ccccc13)CCC2`, the TGI worked out at 28.4 µM.

For `O=C(O[C@H](/C=C/c1ccccc1)P1(=O)N(Cc2ccccc2)[C@@H]2CCCC[C@H]2N1Cc1ccccc1)c1ccccc1`, the TGI turned out to be 6.19 µM.

Consider `CCOC(=O)C(=O)N1C(C)=C(C(=O)OCC)CC(C(=O)OCC)=C1C`, for which the TGI was > 100 µM.

The next experiment has as its system OVCAR-5 ovarian. Nature of the experiment: NCI tumour cell line growth inhibition, 48 h.
For `CC(C)CCNC(=O)c1ccc(CNC(=O)/C=C/c2ccc(OCc3ccccc3)cc2)cc1`, the TGI was > 100 µM.

Consider `N#Cc1c2c(c(Nc3ccc(F)cc3)n3c1nc1ccccc13)CCC2`, for which the TGI turned out to be 13.9 µM.

Turning to `O=C(O[C@H](/C=C/c1ccccc1)P1(=O)N(Cc2ccccc2)[C@@H]2CCCC[C@H]2N1Cc1ccccc1)c1ccccc1`, the TGI is > 100 µM.

Consider `CCOC(=O)C(=O)N1C(C)=C(C(=O)OCC)CC(C(=O)OCC)=C1C`, for which the TGI was > 100 µM.

The subject of the next experiment is OVCAR-8 ovarian. As to the kind of experiment: NCI tumour cell line growth inhibition, 48 h.
`CC(C)CCNC(=O)c1ccc(CNC(=O)/C=C/c2ccc(OCc3ccccc3)cc2)cc1`: the TGI was > 100 µM.

In turn, `N#Cc1c2c(c(Nc3ccc(F)cc3)n3c1nc1ccccc13)CCC2` had a TGI of 5.83 µM.

On to `O=C(O[C@H](/C=C/c1ccccc1)P1(=O)N(Cc2ccccc2)[C@@H]2CCCC[C@H]2N1Cc1ccccc1)c1ccccc1`, for which the TGI is > 100 µM.

The next experiment concerns PC-3 prostate. Nature of the experiment: NCI tumour cell line growth inhibition, 48 h.
As for `CC(C)CCNC(=O)c1ccc(CNC(=O)/C=C/c2ccc(OCc3ccccc3)cc2)cc1`, the TGI is > 100 µM.

Molecule `N#Cc1c2c(c(Nc3ccc(F)cc3)n3c1nc1ccccc13)CCC2` had a TGI of 19 µM.

`O=C(O[C@H](/C=C/c1ccccc1)P1(=O)N(Cc2ccccc2)[C@@H]2CCCC[C@H]2N1Cc1ccccc1)c1ccccc1`: the TGI was > 100 µM.

With `CCOC(=O)C(=O)N1C(C)=C(C(=O)OCC)CC(C(=O)OCC)=C1C`, the TGI was > 100 µM.

A further experiment has as its system RPMI-8226 leukemia. As to the kind of experiment: NCI tumour cell line growth inhibition, 48 h.
For the molecule `CC(C)CCNC(=O)c1ccc(CNC(=O)/C=C/c2ccc(OCc3ccccc3)cc2)cc1`, the TGI was > 100 µM.

On to `N#Cc1c2c(c(Nc3ccc(F)cc3)n3c1nc1ccccc13)CCC2`, for which the TGI was > 21.3 µM.

Molecule `O=C(O[C@H](/C=C/c1ccccc1)P1(=O)N(Cc2ccccc2)[C@@H]2CCCC[C@H]2N1Cc1ccccc1)c1ccccc1` returned a TGI of 6.39 µM.

As to `CCOC(=O)C(=O)N1C(C)=C(C(=O)OCC)CC(C(=O)OCC)=C1C`, the TGI was > 100 µM.

The subject of another experiment is RXF 393 renal. Nature of the experiment: NCI tumour cell line growth inhibition, 48 h.
Take `CC(C)CCNC(=O)c1ccc(CNC(=O)/C=C/c2ccc(OCc3ccccc3)cc2)cc1`: the TGI was > 100 µM.

The molecule `N#Cc1c2c(c(Nc3ccc(F)cc3)n3c1nc1ccccc13)CCC2` displayed a TGI of 7.9 µM.

Take `CCOC(=O)C(=O)N1C(C)=C(C(=O)OCC)CC(C(=O)OCC)=C1C`: the TGI is > 100 µM.

Another experiment has as its system SF-268 CNS. Nature of the experiment: NCI tumour cell line growth inhibition, 48 h.
With `CC(C)CCNC(=O)c1ccc(CNC(=O)/C=C/c2ccc(OCc3ccccc3)cc2)cc1`, the TGI is > 100 µM.

The molecule `N#Cc1c2c(c(Nc3ccc(F)cc3)n3c1nc1ccccc13)CCC2` showed a TGI of 18.1 µM.

Consider `O=C(O[C@H](/C=C/c1ccccc1)P1(=O)N(Cc2ccccc2)[C@@H]2CCCC[C@H]2N1Cc1ccccc1)c1ccccc1`, for which the TGI is > 100 µM.

A further experiment relates to SF-295 CNS. Nature of the experiment: NCI tumour cell line growth inhibition, 48 h.
With `CC(C)CCNC(=O)c1ccc(CNC(=O)/C=C/c2ccc(OCc3ccccc3)cc2)cc1`, the TGI was > 100 µM.

`N#Cc1c2c(c(Nc3ccc(F)cc3)n3c1nc1ccccc13)CCC2` registered a TGI of 18.7 µM.

`O=C(O[C@H](/C=C/c1ccccc1)P1(=O)N(Cc2ccccc2)[C@@H]2CCCC[C@H]2N1Cc1ccccc1)c1ccccc1`: the TGI was > 100 µM.

As for `CCOC(=O)C(=O)N1C(C)=C(C(=O)OCC)CC(C(=O)OCC)=C1C`, the TGI is > 100 µM.

A further experiment has as its system SF-539 CNS. As to the kind of experiment: NCI tumour cell line growth inhibition, 48 h.
`N#Cc1c2c(c(Nc3ccc(F)cc3)n3c1nc1ccccc13)CCC2` gave a TGI of 9.56 µM.

Molecule `O=C(O[C@H](/C=C/c1ccccc1)P1(=O)N(Cc2ccccc2)[C@@H]2CCCC[C@H]2N1Cc1ccccc1)c1ccccc1` registered a TGI of 22.2 µM.

Regarding `CCOC(=O)C(=O)N1C(C)=C(C(=O)OCC)CC(C(=O)OCC)=C1C`, the TGI is > 100 µM.

Another experiment concerns SK-MEL-2 melanoma. As to the kind of experiment: NCI tumour cell line growth inhibition, 48 h.
Take `CC(C)CCNC(=O)c1ccc(CNC(=O)/C=C/c2ccc(OCc3ccccc3)cc2)cc1`: the TGI is > 100 µM.

With `N#Cc1c2c(c(Nc3ccc(F)cc3)n3c1nc1ccccc13)CCC2`, the TGI amounted to 40.6 µM.

In turn, `O=C(O[C@H](/C=C/c1ccccc1)P1(=O)N(Cc2ccccc2)[C@@H]2CCCC[C@H]2N1Cc1ccccc1)c1ccccc1` came in with a TGI of 5.53 µM.
